Molecular target: full-length human ATR protein (Homo sapiens (Human), UniProt Q13535)
Experiment: Binding assay ATR (TR-FRET tracer displacement)
Conditions: tracer A, TR-FRET; read-out: ATR binding (tracer A) IC50
Method in brief: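 Full-length human GST-ATR co-purified with ATRIP, pre-complexed 30 min at 22 °C with anti-GST-Tb antibody, then pre-bound with compound 10 min. Tracer A or B added (2 µl of 100 nM solution), 30 min at 22 °C.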

full-length human ATR protein, sequence (Q13535 other isoform, or with tags, fused parts or gaps): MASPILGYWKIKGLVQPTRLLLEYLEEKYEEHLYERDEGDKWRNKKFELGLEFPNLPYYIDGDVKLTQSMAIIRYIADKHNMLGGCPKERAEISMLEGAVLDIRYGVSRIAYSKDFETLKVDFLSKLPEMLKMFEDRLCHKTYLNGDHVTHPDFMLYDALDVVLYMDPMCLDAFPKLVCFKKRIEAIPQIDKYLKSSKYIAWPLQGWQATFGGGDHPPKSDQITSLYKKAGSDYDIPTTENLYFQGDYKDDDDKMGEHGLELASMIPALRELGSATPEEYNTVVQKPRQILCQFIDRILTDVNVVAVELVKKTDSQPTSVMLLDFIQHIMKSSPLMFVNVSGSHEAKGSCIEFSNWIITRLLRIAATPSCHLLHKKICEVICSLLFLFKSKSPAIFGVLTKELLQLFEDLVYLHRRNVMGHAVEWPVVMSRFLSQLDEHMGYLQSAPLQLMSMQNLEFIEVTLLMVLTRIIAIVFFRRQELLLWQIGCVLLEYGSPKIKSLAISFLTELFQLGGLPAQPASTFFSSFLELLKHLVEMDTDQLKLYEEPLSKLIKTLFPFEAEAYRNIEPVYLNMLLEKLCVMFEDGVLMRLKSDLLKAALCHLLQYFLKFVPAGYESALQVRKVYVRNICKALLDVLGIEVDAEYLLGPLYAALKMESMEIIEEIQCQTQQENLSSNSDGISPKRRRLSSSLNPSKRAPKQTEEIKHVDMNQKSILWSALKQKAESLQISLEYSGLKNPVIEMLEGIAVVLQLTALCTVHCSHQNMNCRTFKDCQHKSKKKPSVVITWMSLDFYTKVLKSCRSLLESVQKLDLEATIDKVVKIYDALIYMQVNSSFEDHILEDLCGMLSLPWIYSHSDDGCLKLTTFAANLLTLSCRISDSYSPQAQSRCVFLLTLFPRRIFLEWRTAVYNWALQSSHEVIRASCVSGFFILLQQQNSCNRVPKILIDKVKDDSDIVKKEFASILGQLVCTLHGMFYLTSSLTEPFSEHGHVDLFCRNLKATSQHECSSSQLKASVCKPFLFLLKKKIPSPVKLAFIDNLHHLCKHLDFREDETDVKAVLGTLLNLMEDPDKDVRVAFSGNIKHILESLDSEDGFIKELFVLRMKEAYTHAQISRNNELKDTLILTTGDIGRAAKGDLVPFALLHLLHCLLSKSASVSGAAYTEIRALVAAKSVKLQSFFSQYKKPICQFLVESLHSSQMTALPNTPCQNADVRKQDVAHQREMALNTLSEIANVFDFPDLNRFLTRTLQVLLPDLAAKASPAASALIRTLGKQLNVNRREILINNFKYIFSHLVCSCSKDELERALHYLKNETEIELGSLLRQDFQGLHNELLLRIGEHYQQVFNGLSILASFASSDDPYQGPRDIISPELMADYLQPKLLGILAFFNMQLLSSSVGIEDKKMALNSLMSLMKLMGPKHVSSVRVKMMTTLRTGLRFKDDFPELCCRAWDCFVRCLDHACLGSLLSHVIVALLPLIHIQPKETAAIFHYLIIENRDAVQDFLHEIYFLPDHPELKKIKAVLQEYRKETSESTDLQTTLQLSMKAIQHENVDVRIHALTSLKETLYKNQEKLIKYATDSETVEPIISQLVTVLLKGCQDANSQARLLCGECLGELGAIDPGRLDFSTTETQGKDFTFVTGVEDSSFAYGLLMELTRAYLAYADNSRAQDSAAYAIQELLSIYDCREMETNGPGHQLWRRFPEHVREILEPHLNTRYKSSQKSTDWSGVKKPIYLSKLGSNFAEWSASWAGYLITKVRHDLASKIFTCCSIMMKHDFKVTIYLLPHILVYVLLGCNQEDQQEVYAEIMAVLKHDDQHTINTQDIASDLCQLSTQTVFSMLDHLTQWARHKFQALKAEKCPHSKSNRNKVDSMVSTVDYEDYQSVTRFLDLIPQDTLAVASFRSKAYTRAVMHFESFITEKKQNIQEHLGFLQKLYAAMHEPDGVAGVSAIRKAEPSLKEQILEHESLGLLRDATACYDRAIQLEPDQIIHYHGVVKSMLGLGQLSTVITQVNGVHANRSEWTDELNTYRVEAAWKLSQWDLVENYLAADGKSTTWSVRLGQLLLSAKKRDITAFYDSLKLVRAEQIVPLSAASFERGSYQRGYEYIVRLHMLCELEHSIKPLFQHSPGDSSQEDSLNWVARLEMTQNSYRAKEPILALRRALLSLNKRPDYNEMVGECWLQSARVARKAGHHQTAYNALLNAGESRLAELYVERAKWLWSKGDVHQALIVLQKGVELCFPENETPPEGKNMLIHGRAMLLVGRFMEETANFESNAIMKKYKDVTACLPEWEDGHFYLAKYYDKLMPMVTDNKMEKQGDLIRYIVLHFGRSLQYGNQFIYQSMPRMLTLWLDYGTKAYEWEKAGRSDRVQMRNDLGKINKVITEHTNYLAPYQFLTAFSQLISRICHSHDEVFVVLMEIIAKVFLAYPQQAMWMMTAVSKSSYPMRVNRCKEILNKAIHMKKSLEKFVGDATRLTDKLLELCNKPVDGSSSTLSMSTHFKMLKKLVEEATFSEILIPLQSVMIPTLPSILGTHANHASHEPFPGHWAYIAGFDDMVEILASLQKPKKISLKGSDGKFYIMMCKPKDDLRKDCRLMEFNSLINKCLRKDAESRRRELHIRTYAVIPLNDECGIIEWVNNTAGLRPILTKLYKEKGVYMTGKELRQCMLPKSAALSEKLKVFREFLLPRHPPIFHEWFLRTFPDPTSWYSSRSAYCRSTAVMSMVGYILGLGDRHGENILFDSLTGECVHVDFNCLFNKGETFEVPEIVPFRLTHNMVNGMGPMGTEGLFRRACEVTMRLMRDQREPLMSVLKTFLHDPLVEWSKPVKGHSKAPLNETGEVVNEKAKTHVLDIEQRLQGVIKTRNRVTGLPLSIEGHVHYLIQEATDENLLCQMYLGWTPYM
full-length human ATR protein, sequence (Q8WXE1 other isoform, or with tags, fused parts or gaps partner): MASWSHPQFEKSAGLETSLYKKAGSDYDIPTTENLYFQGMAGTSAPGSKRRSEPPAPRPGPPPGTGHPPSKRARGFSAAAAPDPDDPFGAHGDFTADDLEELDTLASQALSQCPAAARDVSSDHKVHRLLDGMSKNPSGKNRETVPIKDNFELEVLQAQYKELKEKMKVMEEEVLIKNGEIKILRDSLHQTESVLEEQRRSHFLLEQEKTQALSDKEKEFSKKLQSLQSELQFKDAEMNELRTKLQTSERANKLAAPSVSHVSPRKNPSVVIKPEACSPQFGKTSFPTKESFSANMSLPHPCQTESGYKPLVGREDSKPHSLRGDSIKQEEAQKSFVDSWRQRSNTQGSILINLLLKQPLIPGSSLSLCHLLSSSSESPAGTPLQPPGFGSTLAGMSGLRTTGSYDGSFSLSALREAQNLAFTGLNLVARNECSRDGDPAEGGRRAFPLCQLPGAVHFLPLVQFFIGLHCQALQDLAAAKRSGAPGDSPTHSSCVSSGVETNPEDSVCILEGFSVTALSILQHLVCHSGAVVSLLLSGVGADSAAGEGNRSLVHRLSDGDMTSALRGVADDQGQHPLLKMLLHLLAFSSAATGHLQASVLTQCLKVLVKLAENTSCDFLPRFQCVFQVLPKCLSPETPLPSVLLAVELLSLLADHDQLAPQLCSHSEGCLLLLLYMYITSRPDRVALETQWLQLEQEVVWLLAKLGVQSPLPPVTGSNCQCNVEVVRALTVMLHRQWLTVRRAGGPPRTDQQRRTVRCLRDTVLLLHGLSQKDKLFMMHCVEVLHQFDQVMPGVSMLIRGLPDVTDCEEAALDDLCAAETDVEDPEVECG

| SMILES | IC50 [nM] |
| --- | --- |
| CCn1cnc(-c2cc(N3CCOC[C@H]3C)nc3c(-c4ccn[nH]4)nccc23)c1 [Example 153, 4-(1-ethyl-1H-imidazol-4-yl)-2-[(3R)-3-methylmorpholin-4-yl]-8-(1H-pyrazol-5-yl)-1,7-naphthyridine] | 54.7 |
| Cc1ccsc1-c1cc(N2CCOCC2)nc2c(-c3ccn[nH]3)nccc12 [Example 373, 4-(3-methylthiophen-2-yl)-2-(morpholin-4-yl)-8-(1H-pyrazol-5-yl)-1,7-naphthyridine] | 38.1 |
| c1cc(-c2nccc3c(N4CCCCCC4)cc(N4CCOCC4)nc23)[nH]n1 [Example 413, 4-(azepan-1-yl)-2-(morpholin-4-yl)-8-(1H-pyrazol-5-yl)-1,7-naphthyridine] | 279 |
| C[C@@H]1COCCN1c1cc(-c2ccc(Cl)s2)c2ccnc(-c3ccn[nH]3)c2n1 [Example 238, 4-(5-chlorothiophen-2-yl)-2-[(3R)-3-methylmorpholin-4-yl]-8-(1H-pyrazol-5-yl)-1,7-naphthyridine] | 34.5 |
| C[C@@H]1COCCN1c1cc(-c2ncco2)c2ccnc(-c3ccn[nH]3)c2n1 [Example 270, 2-[(3R)-3-methylmorpholin-4-yl]-4-(1,3-oxazol-2-yl)-8-(1H-pyrazol-5-yl)-1,7-naphthyridine] | 33.7 |
| COc1cncc(-c2cc(N3CCOCC3)nc3c(-c4ccn[nH]4)nccc23)c1 [Example 353, 4-(5-methoxypyridin-3-yl)-2-(morpholin-4-yl)-8-(1H-pyrazol-5-yl)-1,7-naphthyridine] | 242 |
| CSc1ccc(-c2cc(N3CCOC[C@H]3C)nc3c(-c4ccn[nH]4)nccc23)c(C)n1 [Example 115, 4-[2-methyl-6-(methylsulfanyl)pyridin-3-yl]-2-[(3R)-3-methylmorpholin-4-yl]-8-(1H-pyrazol-5-yl)-1,7-naphthyridine] | 7.44 |
| C[C@@H]1COCCN1c1cc(-c2cnn(C3CCC3)c2)c2ccnc(-c3ccn[nH]3)c2n1 [Example 253, 4-(1-cyclobutyl-1H-pyrazol-4-yl)-2-[(3R)-3-methylmorpholin-4-yl]-8-(1H-pyrazol-5-yl)-1,7-naphthyridine] | 33.7 |
| CN(c1ccc(F)cc1)c1cc(N2CCOCC2)nc2c(-c3ccn[nH]3)nccc12 [Example 431, N-(4-fluorophenyl)-N-methyl-2-(morpholin-4-yl)-8-(1H-pyrazol-5-yl)-1,7-naphthyridin-4-amine] | 34.7 |
| CC[S+]([O-])c1cc(N2CCOCC2)nc2c(-c3ccn[nH]3)nccc12 (stereo not drawn) [Example 195, 4-ethylsulfinyl-2-(morpholin-4-yl)-8-(1H-pyrazol-5-yl)-1,7-naphthyridine] | 71.4 |
| C[C@@H]1COCCN1c1cc(N)c2ccnc(-c3ccn[nH]3)c2n1 [Example 267, 2-[(3R)-3-methylmorpholin-4-yl]-8-(1H-pyrazol-5-yl)-1,7-naphthyridin-4-amine] | 1010 |
| Clc1ccc(-c2cc(N3CCOCC3)nc3c(-c4ccn[nH]4)nccc23)cc1 [Example 316, 4-(4-chlorophenyl)-2-(morpholin-4-yl)-8-(1H-pyrazol-5-yl)-1,7-naphthyridine] | 53.2 |
| OCc1ccc(-c2cc(N3CCOCC3)nc3c(-c4ccn[nH]4)nccc23)s1 [Example 358, {5-[2-(morpholin-4-yl)-8-(1H-pyrazol-5-yl)-1,7-naphthyridin-4-yl]thiophen-2-yl}methanol] | 46.4 |
| C[C@@H]1COCCN1c1cc(C2CCSCC2)c2ccnc(-c3ccn[nH]3)c2n1 [Example 241, 2-[(3R)-3-methylmorpholin-4-yl]-8-(1H-pyrazol-5-yl)-4-(tetrahydro-2H-thiopyran-4-yl)-1,7-naphthyridine] | 4.06 |
| COc1ccc2c(c1)cc(-c1cc(N3CCOCC3)nc3c(-c4ccn[nH]4)nccc13)n2C(=O)OC(C)(C)C [Example 368, tert-butyl 5-methoxy-2-[2-(morpholin-4-yl)-8-(1H-pyrazol-5-yl)-1,7-naphthyridin-4-yl]-1H-indole-1-carboxylate] | 3950 |
| CN(C)c1cc(N2CCOCC2)nc2c(-c3ccn[nH]3)nccc12 [Example 206, N,N-dimethyl-2-(morpholin-4-yl)-8-(1H-pyrazol-5-yl)-1,7-naphthyridin-4-amine] | 404 |
| Cc1nc(S(C)(=O)=O)ccc1-c1cc(N2CCOC[C@H]2C)nc2c(-c3ccn[nH]3)nccc12 [Example 73, 4-[2-methyl-6-(methylsulfonyl)pyridin-3-yl]-2-[(3R)-3-methylmorpholin-4-yl]-8-(1H-pyrazol-5-yl)-1,7-naphthyridine] | 6.71 |
| C[C@@H]1CN(c2cc(N3CCOCC3)nc3c(-c4ccn[nH]4)nccc23)C[C@H](C)N1 [Example 179, 4-[(cis)-3,5-dimethylpiperazin-1-yl]-2-(morpholin-4-yl)-8-(1H-pyrazol-5-yl)-1,7-naphthyridine] | 454 |
| CCOc1ccc(-c2cc(N3CCOCC3)nc3c(-c4ccn[nH]4)nccc23)cn1 [Example 382, 4-(6-ethoxypyridin-3-yl)-2-(morpholin-4-yl)-8-(1H-pyrazol-5-yl)-1,7-naphthyridine] | 199 |
| NC(=O)C1CCCN(c2cc(N3CCOCC3)nc3c(-c4ccn[nH]4)nccc23)C1 (stereo not drawn) [Example 416, 1-[2-(morpholin-4-yl)-8-(1H-pyrazol-5-yl)-1,7-naphthyridin-4-yl]piperidine-3-carboxamide] | 251 |
| c1ccc(-c2ccccc2-c2cc(N3CCOCC3)nc3c(-c4ccn[nH]4)nccc23)cc1 [Example 345, 4-(biphenyl-2-yl)-2-(morpholin-4-yl)-8-(1H-pyrazol-5-yl)-1,7-naphthyridine] | 55.6 |
| Cc1ccc(-c2cc(N3CCOCC3)nc3c(-c4ccn[nH]4)nccc23)s1 [Example 381, 4-(5-methylthiophen-2-yl)-2-(morpholin-4-yl)-8-(1H-pyrazol-5-yl)-1,7-naphthyridine] | 121 |
| COc1nccc(-c2cc(N3CCOC[C@H]3C)nc3c(-c4ccn[nH]4)nccc23)c1Cl [Example 106, 4-(3-chloro-2-methoxypyridin-4-yl)-2-[(3R)-3-methylmorpholin-4-yl]-8-(1H-pyrazol-5-yl)-1,7-napthyridine] | 13.1 |
| C[C@@H]1COCCN1c1cc(-c2ccn(CCF)n2)c2ccnc(-c3ccn[nH]3)c2n1 [Example 158, 4-[1-(2-fluoroethyl)-1H-pyrazol-3-yl]-2-[(3R)-3-methylmorpholin-4-yl]-8-(1H-pyrazol-5-yl)-1,7-naphthyridine] | 13.5 |
| COc1ccncc1-c1cc(N2CCOCC2)nc2c(-c3ccn[nH]3)nccc12 [Example 375, 4-(4-methoxypyridin-3-yl)-2-(morpholin-4-yl)-8-(1H-pyrazol-5-yl)-1,7-naphthyridine] | 894 |
| CCS(=O)(=O)N1CCN(c2cc(N3CCOCC3)nc3c(-c4ccn[nH]4)nccc23)CC1 [Example 433, 4-[4-(ethylsulfonyl)piperazin-1-yl]-2-(morpholin-4-yl)-8-(1H-pyrazol-5-yl)-1,7-naphthyridine] | 41.6 |
| CCNC(=O)N=S(C)(=O)c1ccc(-c2cc(N3CCOCC3)nc3c(-c4ccn[nH]4)nccc23)cc1 (stereo not drawn) [Example 192, 1-ethyl-3-(methyl{4-[2-(morpholin-4-yl)-8-(1H-pyrazol-5-yl)-1,7-naphthyridin-4-yl]phenyl}oxido-λ^6-sulfanylidene)urea] | 115 |
